Tested on: weed plants
Assay: Field trial of weed control: individual weed plants counted on test plots after herbicide treatment
Format: in vivo
Details: for Incidence of weeds (average count of weed plants per test plot): MustGrow SCN 24.3 kg/acre
Protocol: A total of 8 herbicide treatments were run in a field trial as follows:
RT540®, Bayer CropScience contains 540 g/L of glyphosate as the active ingredient. MustGrow SCN consists of pure commercially purchased thiocyanate in powder form. RT540 and MustGrow SCN were diluted with 10 parts of water and applied using a backpack sprayer to each of the test plots located in central Saskatchewan at the rate indicated in Table 2. Each treatment consisted of triplicate experimental plots (4×20 ft). Weed plant growth was monitored by counting individual weed plants present on each of the test plots over a period of 5 weeks from application.

Row | Compound | Effectiveness in limiting the incidence of weeds, in words (under the conditions of this trial, RT540 0.1-1 L/acre) | Incidence of weeds (average count of weed plants per test plot) (week 1) | Incidence of weeds (average count of weed plants per test plot) (week 2) | Incidence of weeds (average count of weed plants per test plot) (week 3) | Incidence of weeds (average count of weed plants per test plot) (week 4) | Incidence of weeds (average count of weed plants per test plot) (week 5)
1 | O=C(O)CNCP(=O)(O)O [glyphosate, N-(phosphomethyl)glycine, reference compound] | marginally effective | – | – | – | – | –
2 | thiocyanate [MustGrow SCN] | – | 8 | 15 | 75 | 155 | 174

Reference: patent publication US12667103B2, “Methods and compositions comprising herbicidally active compounds and thiocyanate compounds for controlling weed growth” (MUSTGROW BIOLOGICS CORP., priority 2020, dated 2026)
